Experimental data published in patent publication US20250115597A1, “TYK2 INHIBITORS AND COMPOSITIONS AND METHODS THEREOF” (LYNK PHARMACEUTICALS CO. LTD., priority 2021, published 2025).
Read-outs that look alike come from different tables or passages of the source.

Experiments:
[1] = target: T1, Ba/F3-FL-TYK2-P760L cells (Homo sapiens, UniProt P29597, P760L, cells depend on it); assay: Anti-proliferative assay, Ba/F3-FL-TYK2-P760L cells (Cell-Titer Glo); type: cell-based; settings: 72 h, read-out: BaF3-FL-T2P760L IC50
T1 construct: BaF3-FL-T2P760L (nM)
T1 sequence (P29597 whole entry P760L): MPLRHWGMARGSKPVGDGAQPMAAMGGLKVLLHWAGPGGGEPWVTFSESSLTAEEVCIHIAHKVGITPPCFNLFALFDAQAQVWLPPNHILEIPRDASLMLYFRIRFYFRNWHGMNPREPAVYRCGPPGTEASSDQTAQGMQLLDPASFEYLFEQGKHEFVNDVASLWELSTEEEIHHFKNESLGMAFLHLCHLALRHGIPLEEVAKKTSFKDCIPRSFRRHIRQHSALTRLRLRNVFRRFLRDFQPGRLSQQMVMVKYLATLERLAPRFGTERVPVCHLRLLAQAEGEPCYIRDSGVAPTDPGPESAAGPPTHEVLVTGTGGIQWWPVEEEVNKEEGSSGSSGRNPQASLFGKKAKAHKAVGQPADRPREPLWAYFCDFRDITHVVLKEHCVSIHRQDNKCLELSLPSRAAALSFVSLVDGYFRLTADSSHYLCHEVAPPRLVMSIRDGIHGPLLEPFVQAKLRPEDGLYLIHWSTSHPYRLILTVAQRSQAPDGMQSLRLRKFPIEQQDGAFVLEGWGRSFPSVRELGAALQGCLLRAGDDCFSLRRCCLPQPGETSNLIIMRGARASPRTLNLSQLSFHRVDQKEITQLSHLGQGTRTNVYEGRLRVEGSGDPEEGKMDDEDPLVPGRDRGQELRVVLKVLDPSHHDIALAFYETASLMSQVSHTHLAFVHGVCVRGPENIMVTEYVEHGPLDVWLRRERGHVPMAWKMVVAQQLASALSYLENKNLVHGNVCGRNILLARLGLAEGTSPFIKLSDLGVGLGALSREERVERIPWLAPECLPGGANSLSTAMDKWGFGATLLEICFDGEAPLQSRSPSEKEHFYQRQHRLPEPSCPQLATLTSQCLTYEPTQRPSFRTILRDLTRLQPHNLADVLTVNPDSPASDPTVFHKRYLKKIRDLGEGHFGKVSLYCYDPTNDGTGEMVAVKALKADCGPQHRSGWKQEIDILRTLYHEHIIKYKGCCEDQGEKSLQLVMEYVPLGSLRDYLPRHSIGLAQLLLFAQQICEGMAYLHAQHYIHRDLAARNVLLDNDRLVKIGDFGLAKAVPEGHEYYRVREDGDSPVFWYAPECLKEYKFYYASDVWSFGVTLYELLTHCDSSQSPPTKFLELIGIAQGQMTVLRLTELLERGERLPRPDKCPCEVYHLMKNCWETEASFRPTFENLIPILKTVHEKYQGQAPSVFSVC
Procedure, shortened: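 Ba/F3 cells made IL-3-independent by TEL-fused or full-length mutant JAK-family kinases, seeded at 2000/well and dosed after 24 h with 9 three-fold dilutions topping at 20 μM. Viability after 72 h at 37 °C, 5% CO2 by Cell-Titer Glo ATP luminescence.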

[2] = Plasma protein binding by equilibrium dialysis; type: in vitro ADME; settings: human plasma, equilibrium dialysis 5 hours at 37° C.; read-out: % Bound (human) (converted)
Protocol: Plasma Protein Binding by Equilibrium Dialysis
Aliquots of test compound stock solution and warfarin stock solution were spiked into plasma to give the matrix solutions with theoretical concentrations of test compound at 0.2 and 2 μM or warfarin at 2 μM. Immediately transfer 50 μL of the spiked plasma solution suspension to a 96-well plate to act as T=0 control sample. Assemble the dialysis set up following the manufacturer's instructions. Load cells with 150 μL of plasma sample and dialyzed against equal volume of dialysis buffer (PBS). The assay is performed in duplicate. Cover the unit with gas permeable lid and incubate for 5 hours at 37° C. at 100 rpm in a constant temperature shaking box. At the end of incubation, remove lid and pipette 50 μL of post-dialysis samples from both buffer and plasma solution chambers into separated 96-well plate for analysis, respectively. Add 50 μL of plasma solution to the buffer samples, and an equal volume of PBS to the collected plasma solution samples. Shake the plate at 1000 rpm for 2 minutes and add 600 μL of 50% ACN/MeOH containing an appropriate internal standard (IS) to precipitate protein and release compound. Vortex at 1000 rpm for 10 minutes. Centrifuge for 10 minutes at 4000 rpm. Then transfer 75 μL of the supernatant to new 96-well plates for analysis. Add 150 μL of distilled water to each sample and mix for analysis by LC-MS/MS.
The free rate (% Unbound), binding rate (% Bound), and recovery rate (% Recovery) of the compound are calculated as follows: […]

[3] = Microsomal metabolic stability assay; type: in vitro ADME; settings: pH 7.4, 0.5 mg/mL protein, 1 μM compound
Procedure, shortened: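 Test article at 1 μM with 0.5 mg/mL microsomal protein and 2 mM NADPH, in 100 mM potassium phosphate pH 7.4 with 1.0 mM EDTA at 37 °C. Sampled at 0–45 min and quantified by LC/MS/MS. T1/2 from the slope of ln % remaining vs time.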

TYK2-JH2 domain = target: T2, TYK2-JH2 domain (Homo sapiens, UniProt P29597); assay: Binding activity test for JH2 domain of TYK2 (Tb-antibody/tracer FRET); settings: for JAK1/TYK2 selectivity: ratio JAK1-JH2 IC50 / TYK2-JH2 IC50
T2 construct: IC50 on JH2 domain activity (nM)
T2 sequence (P29597 589-875 limits assumed): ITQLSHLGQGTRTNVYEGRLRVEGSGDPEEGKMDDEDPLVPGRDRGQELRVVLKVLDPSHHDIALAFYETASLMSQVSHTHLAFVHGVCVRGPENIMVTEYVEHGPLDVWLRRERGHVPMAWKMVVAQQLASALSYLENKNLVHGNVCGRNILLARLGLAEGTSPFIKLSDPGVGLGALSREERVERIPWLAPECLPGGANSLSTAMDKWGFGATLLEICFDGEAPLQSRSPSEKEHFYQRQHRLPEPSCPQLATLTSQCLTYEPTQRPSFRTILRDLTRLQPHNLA
Procedure, shortened: (§1)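 Compounds tested as 11-point 3-fold serial dilutions against the JH2 domain in a Tb-antibody/tracer FRET binding format. Plates incubated 60 min at 25° C, then overnight at 4° C, before FRET reading.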

JAK1-JH2 domain = target: T3, JAK1-JH2 domain (Homo sapiens, UniProt P23458); assay: Binding activity test for JH2 domain of JAK1 (Tb-antibody/tracer FRET)
T3 construct: IC50 on JH2 domain activity (nM)
T3 sequence (P23458 583-855 limits assumed): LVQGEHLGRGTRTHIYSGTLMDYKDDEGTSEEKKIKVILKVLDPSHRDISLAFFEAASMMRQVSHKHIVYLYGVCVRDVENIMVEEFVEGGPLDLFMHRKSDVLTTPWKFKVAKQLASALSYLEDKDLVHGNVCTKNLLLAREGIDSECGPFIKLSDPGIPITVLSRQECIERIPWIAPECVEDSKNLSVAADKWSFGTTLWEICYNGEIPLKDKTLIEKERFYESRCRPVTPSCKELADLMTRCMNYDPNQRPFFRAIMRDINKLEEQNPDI
Procedure, shortened: as §1

pSTAT1 = assay: Phosphorylation inhibition of STAT in human whole blood, IFN-alpha stimulated (flow cytometry); type: cell-based; settings: 20 min; human whole blood, IFN-alpha 20 mins, CD3 cells; read-out: IC50 on pSTAT1 inhibition in h WB
Protocol: Phosphorylation Inhibition of STAT in Human PBMC and Human Whole Blood Testing:
The inhibitory potential of test articles in human PBMC and human whole blood assay was evaluated by the method of flow cytometry.
IFN-alpha will activate JAK1 and TYK2 kinase in T cells by binding to IFN receptors, and then lead to phosphorylation of STAT1 and STAT2. The phosphorylated STAT1 enter nuclear and promote transcription and expression of IFN-gamma. To evaluate the efficacy of TYK2i in T cells, freshly prepared human PBMC or freshly collected human whole blood will be stimulated with certain unit of human IFN-alpha (Universal Type I IFN(1MU), R&D, 11200-2) for 20 mins in incubator. After stimulation, fix cells with Phosflow™ Fix Buffer I (BD, 557870), and then collect fixed cells by centrifugation (500 g, 8 min). Wash cells once with pre-cooled PBS, and then permeabilize cells with cold Perm Buffer III buffer (BD, 558050) for 45 mins on ice. Collect cells by centrifugation (600 g, 8 min) and washed twice with cold PBS. Stain cells with anti-human CD3 (FITC Mouse Anti-Human CD3, BD, 555332) and anti-pSTAT1_Y701(Alexa Fluor 647 Mouse Anti-Stat1 (pY701), BD, 612597) antibodies. Detect pSTAT1 by flow cytometry (CytoFlex S) and analyze data with FlowJo and GraphPad Prism 8 software. IC50 values of test articles were determined using 4-parameter logistic equation.

[4] = Hepatocytes metabolic stability assay; type: in vitro ADME; settings: cryopreserved hepatocytes, human hepatocytes, 1.0×10^6 cells/mL; for half-life at 1 μM: read-out: Human hepatocyte stability T1/2
Protocol: Hepatocytes Metabolic Stability Assay
The vials of cryopreserved hepatocytes were removed from the liquid nitrogen container and immediately immersed in a 37° C. water bath for approximately 2 min. The melted ice pellets were transferred into tubes containing 50 mL of pre-warmed thawing medium and mixed well by gently inverting the tubes, and then centrifuged at 500 rpm for 3 minutes at room temperature. The supernatants were discarded, and cell pellets were re-suspended by adding appropriate volumes of pre-warmed incubation medium. The cells viability of each species was determined using Trypan Blue exclusion. Add 50 μL of pre-warmed 2× dosing solution to the wells designated for different time points. Then 50 μL of cells suspension (2×10^6 cells/mL) were added into appropriate wells at corresponding time points of T15, T30, T60, T120. Start timing and put the plate in an incubator at 37° C. For TO sample, add 300 μL of ACN containing internal standard to the wells, mix gently, then add 50 μL of pre-warmed hepatocytes solution (2×10^6 cells/mL). The concentration of test compound was 1 μM and 1.0×10^6 cells/mL in the final incubation. At each corresponding time point, test and control compounds reaction samples were stopped by adding 300 μL acetonitrile containing internal standard. All sample plates were thoroughly mixed and centrifuged at 5000×g for 15 minutes. The supernatants were diluted at ratio of 1:1 with ultra-pure water for test and positive controls. Then submitted for LC-MS/MS analysis.
The analyte/internal standard peak area ratios were converted to percentage remaining with the following equation: […]
The in vitro elimination constant, k of test compounds and control compounds were calculated from a log linear plot of % Remaining versus time, then the half-life (T1/2), the estimation of the in vitro hepatic intrinsic clearance (CLint) values were calculated from substrate disappearance rate in hepatocytes incubation: […]

[5] = dog liver microsomes, read-out: Dog LM Clint
[6] = dog liver microsomes, read-out: Dog LM T½
[7] = human liver microsomes, read-out: Human LM Clint
[8] = human liver microsomes, read-out: Human LM T½
[9] = rat liver microsomes, read-out: Rat LM Clint
[10] = rat liver microsomes, read-out: Rat LM T½

Row | SMILES | GI50 [1] [nM] | fraction unbound at 5 h [2] | microsomal CLint at 1 μM [3, 5] [µL/min/mg] | half-life at 1 μM [3, 6] [min] | microsomal CLint at 1 μM [3, 7] [µL/min/mg] | half-life at 1 μM [3, 8] [min] | microsomal CLint at 1 μM [3, 9] [µL/min/mg] | half-life at 1 μM [3, 10] [min] | IC50 (TYK2-JH2 domain) [nM] | IC50 (JAK1-JH2 domain) [nM] | IC50 (pSTAT1) [nM] | CLint scaled at 1 μM ([4]; read-out: Human hepatocyte Clint(liver)) [mL/min/kg] | half-life at 1 μM [4] [min] | JAK1/TYK2 selectivity (TYK2-JH2 domain)
1 | CNC(=O)c1cnc(NC(=O)C2CC2)cc1Nc1nn(C)c2ccn(CC(F)(F)F)c(=O)c12 [Example 52, 6-(Cyclopropanecarboxamido)-N-methyl-4-((1-methyl-4-oxo-5-(2,2,2-trifluoroethyl)-4,5-dihydro-1H-pyrazolo[4,3-c]pyridin-3-yl)amino)nicotinamide] | 127 | 0.041 | 11.1 | 125 | 8.05 | 172 | 30.8 | 45 | – | – | – | – | – | –
2 | [2H]C([2H])([2H])NC(=O)c1cnc(NC(=O)C2CC2)cc1Nc1nn(CCCOC)c2ccn(CC(F)(F)F)c(=O)c12 [Example 96, 6-(Cyclopropanecarboxamido)-4-((1-(3-methoxypropyl)-4-oxo-5-(2,2,2-trifluoroethyl)-4,5-dihydro-1H-pyrazolo[4,3-c]pyridin-3-yl)amino)-N-(methyl-d3)nicotinamide] | 351 | 0.171 | – | – | 16.7 | 83 | – | – | – | – | – | – | – | –
3 | [2H]C([2H])([2H])NC(=O)c1cnc(Nc2ccn(C)n2)cc1Nc1cc(F)c2cnn(CC)c2c1OC [Example 151, 4-((1-Ethyl-4-fluoro-7-methoxy-1H-indazol-6-yl)amino)-N-(methyl-d3)-6-((1-methyl-1H-pyrazol-3-yl)amino)nicotinamide] | 77.7 | – | 46.8 | 29.6 | 63.5 | 21.8 | 66.3 | 20.9 | 0.46 | 13.1 | 1860 | 9.1 | 194 | 28.5
4 | [2H]C([2H])([2H])NC(=O)c1cnc(Nc2cc(C)nc(C)n2)cc1Nc1cc(F)c2cnn(CC)c2c1OC [Example 152, 6-((2,6-Dimethylpyrimidin-4-yl)amino)-4-((1-ethyl-4-fluoro-7-methoxy-1H-indazol-6-yl)amino)-N-(methyl-d3)nicotinamide] | 27.9 | – | 478 | 2.9 | 42.4 | 32.7 | 54.1 | 25.6 | 0.171 | 10.7 | 78.5 | – | > 240 | 62.6
5 | [2H]C([2H])([2H])NC(=O)c1cnc(NC(=O)C2CC2)cc1Nc1ccn2ncc(CO)c2c1OC [Example 225, 6-(Cyclopropanecarboxamido)-4-((3-(hydroxymethyl)-4-methoxypyrazolo[1,5-a]pyridin-5-yl)amino)-N-(methyl-d3)nicotinamide] | 565 | 0.346 | – | – | – | – | – | – | 0.868 | 15.2 | – | – | – | 17.5

The remaining lines, values ahead:

Row | GI50 [1] [nM] | fraction unbound at 5 h [2] | microsomal CLint at 1 μM [3, 5] [µL/min/mg] | half-life at 1 μM [3, 6] [min] | microsomal CLint at 1 μM [3, 7] [µL/min/mg] | half-life at 1 μM [3, 8] [min] | microsomal CLint at 1 μM [3, 9] [µL/min/mg] | half-life at 1 μM [3, 10] [min] | IC50 (TYK2-JH2 domain) [nM] | IC50 (JAK1-JH2 domain) [nM] | IC50 (pSTAT1) [nM] | CLint scaled at 1 μM ([4]; read-out: Human hepatocyte Clint(liver)) [mL/min/kg] | half-life at 1 μM [4] [min] | JAK1/TYK2 selectivity (TYK2-JH2 domain) | SMILES
6 | 144 | 0.286 | – | – | – | – | – | – | 0.293 | – | – | – | – | – | [2H]C([2H])([2H])NC(=O)c1cnc(NC(=O)C2CC2)cc1Nc1nn(C)c2ccn(CC(F)(F)F)c(=O)c12 [Example 53, 6-(Cyclopropanecarboxamido)-N-(methyl-d3)-4-((1-methyl-4-oxo-5-(2,2,2-trifluoroethyl)-4,5-dihydro-1H-pyrazolo[4,3-c]pyridin-3-yl)amino)nicotinamide]
7 | 172 | 0.061 | – | – | – | – | – | – | – | – | – | – | – | – | CNC(=O)c1cnc(NC(=O)C2CC2)nc1Nc1cccc(-c2ncn(C)n2)c1OC [Example 65, 2-(Cyclopropanecarboxamido)-4-((2-methoxy-3-(1-methyl-1H-1,2,4-triazol-3-yl)phenyl)amino)-N-methylpyrimidine-5-carboxamide]
8 | 68.4 | 0.039 | < 7.4 | > 186 | 15.2 | 91.2 | 26.4 | 52.5 | 0.948 | – | – | – | – | – | [2H]C([2H])([2H])NC(=O)c1cnc(NC(=O)C2CC2)cc1Nc1cn(C)c2c(F)cn(CC(F)F)c(=O)c12 [Example 158, 6-(Cyclopropanecarboxamido)-4-((5-(2,2-difluoroethyl)-7-fluoro-1-methyl-4-oxo-4,5-dihydro-1H-pyrrolo[3,2-c]pyridin-3-yl)amino)-N-(methyl-d3)nicotinamide]
9 | 181 | 0.041 | – | – | – | – | – | – | 0.525 | – | – | – | – | – | [2H]C([2H])([2H])NC(=O)c1cnc(NC(=O)C2CC2)cc1Nc1csc2ncn(CC)c(=O)c12 [Example 216, 6-(Cyclopropanecarboxamido)-4-((3-ethyl-4-oxo-3,4-dihydrothieno[2,3-d]pyrimidin-5-yl)amino)-N-(methyl-d3)nicotinamide]
10 | 221 | 0.126 | – | – | – | – | – | – | 1.46 | 56.5 | – | – | – | 38.8 | [2H]C([2H])([2H])NC(=O)c1cnc(NC(=O)C2CC2)cc1Nc1ccn2ncc(COC)c2c1OC [Example 226, 6-(Cyclopropanecarboxamido)-4-((4-methoxy-3-(methoxymethyl)pyrazolo[1,5-a]pyridin-5-yl)amino)-N-(methyl-d3)nicotinamide]
